Results from patent US20150272939A1, “Identification of Small Molecule Inhibitors of Jumonji AT-Rich Interactive Domain 1A (JARID1A) and 1B (JARID1B) Histone Demethylase” (Yale University, priority 2012, published 2015).
Where “and” joins values, the source holds several entries; their conditions need not be identical. Equal entries are not always repeated. Structures can show the parent of a compound that is named as a salt. Where two headings read alike, the source gives them in different places.

Legend:
JARID1B = target: T1, JARID1B (Homo sapiens, UniProt Q9UGL1); test: FLAG-JARID1B histone demethylase assay with AlphaScreen detection (HTS and dose response); type: biochemical; conditions: for inhibition at 20 µM: read-out: Inhibitory effect (percent); for Assay − Artifact Signal (percent): assay signal minus artifact signal; for Assay Signal (percent): effect of compound in JARID1B AlphaScreen assay;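 for Assay Signal (percent): compound tested at 20 µM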;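 for Assay − Artifact Signal (percent): compound tested at 20 µM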;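 for all read-outs here: FLAG-tagged JARID1B at 4 nM acting on a biotinylated H3K4me3 peptide, demethylation read by AlphaScreen luminescence, with hits checked against bio-H3K4me2 without enzyme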
T1 construct: The FLAG tagged full length JARID1B enzyme was expressed in Sf21 insect cells using FLAG-JARID1B baculoviruses; FLAG (N); made in house; host or cells: Sf21 insect cells (baculovirus)
T1 sequence (Q9UGL1 whole entry): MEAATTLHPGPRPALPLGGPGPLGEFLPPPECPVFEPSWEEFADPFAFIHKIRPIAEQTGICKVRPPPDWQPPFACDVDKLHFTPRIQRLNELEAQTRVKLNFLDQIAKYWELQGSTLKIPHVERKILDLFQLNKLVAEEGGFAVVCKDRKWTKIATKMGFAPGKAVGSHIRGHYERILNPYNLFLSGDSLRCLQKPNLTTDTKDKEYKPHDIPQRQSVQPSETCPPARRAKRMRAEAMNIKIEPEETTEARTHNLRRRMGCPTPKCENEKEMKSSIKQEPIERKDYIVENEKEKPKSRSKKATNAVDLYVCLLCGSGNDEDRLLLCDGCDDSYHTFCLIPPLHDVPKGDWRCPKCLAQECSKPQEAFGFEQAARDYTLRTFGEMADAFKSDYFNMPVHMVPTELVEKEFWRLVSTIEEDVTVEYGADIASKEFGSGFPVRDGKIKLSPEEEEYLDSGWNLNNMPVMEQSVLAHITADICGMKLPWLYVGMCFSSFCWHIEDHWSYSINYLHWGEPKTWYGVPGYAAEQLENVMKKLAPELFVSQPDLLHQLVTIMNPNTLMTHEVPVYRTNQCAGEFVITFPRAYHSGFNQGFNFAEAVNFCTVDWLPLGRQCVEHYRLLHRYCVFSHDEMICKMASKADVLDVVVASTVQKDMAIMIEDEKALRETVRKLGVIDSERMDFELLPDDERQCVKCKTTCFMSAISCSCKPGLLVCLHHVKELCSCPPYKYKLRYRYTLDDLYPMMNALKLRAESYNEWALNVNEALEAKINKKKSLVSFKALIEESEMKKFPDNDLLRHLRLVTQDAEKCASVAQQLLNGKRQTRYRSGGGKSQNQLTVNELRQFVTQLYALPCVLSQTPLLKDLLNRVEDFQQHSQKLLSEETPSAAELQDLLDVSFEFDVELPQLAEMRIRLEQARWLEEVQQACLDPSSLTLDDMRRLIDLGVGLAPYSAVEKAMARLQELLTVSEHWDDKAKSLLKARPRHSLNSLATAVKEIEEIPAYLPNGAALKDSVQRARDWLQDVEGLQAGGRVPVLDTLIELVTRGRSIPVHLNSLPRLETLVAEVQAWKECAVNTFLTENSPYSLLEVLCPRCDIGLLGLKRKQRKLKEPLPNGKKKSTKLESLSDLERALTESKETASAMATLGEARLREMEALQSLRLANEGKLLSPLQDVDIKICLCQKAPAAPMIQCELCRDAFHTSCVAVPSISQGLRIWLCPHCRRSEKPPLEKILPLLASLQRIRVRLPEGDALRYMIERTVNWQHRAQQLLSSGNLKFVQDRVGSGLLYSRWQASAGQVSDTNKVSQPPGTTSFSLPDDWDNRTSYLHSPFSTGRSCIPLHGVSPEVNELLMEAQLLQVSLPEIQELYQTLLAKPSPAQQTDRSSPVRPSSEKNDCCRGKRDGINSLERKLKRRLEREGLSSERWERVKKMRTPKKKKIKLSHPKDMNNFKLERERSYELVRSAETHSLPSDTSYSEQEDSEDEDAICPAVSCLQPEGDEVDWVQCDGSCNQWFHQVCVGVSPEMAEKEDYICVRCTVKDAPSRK

[1] = AlphaScreen counterscreen against bio-H3K4me2 peptide in the absence of enzyme (artifact signal); conditions: for Artifact Signal (percent): effect of the compound when incubated with bio-H3K4me2 peptide (counterscreen, no enzyme);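 for all read-outs here: counterscreen run without enzyme against bio-H3K4me2 peptide to remove false positive hits from the JARID1 demethylase AlphaScreen screen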
[2] = high-throughput screen, compound 20 μM, standard demethylase conditions (10 μM α-KG, 50 μM Fe (II))
[3] = validation of HTS actives, total signal before subtraction of artifact signal
[4] = counterscreen, bio-H3K4me2 peptide, no enzyme

inhibition at 20 µM (JARID1B; [2]) [%] | Artifact Signal (percent) [1] | Assay − Artifact Signal (percent) (JARID1B) [%] | Assay Signal (percent) (JARID1B; validation of HTS actives) | Compound | further results
41 |  |  |  | N=C(NCCCCCCNC(=N)NC(=N)Nc1ccc(Cl)cc1)NC(=N)Nc1ccc(Cl)cc1 [YU033734, CHLORHEXIDINE, reference compound] | Validation result of HTS active: effect of the compound in the JARID1B AlphaScreen demethylase assay (JARID1B; [3]): −1.12; Artifact signal: effect of the compound when it is incubated with bio-H3K4me2 peptide [1, 4]: 1.97
67.3 | −1.92% |  |  | O=C(O)C=Cc1ccc(O)c(O)c1 (single isomer, unassigned) [YU155280, CAFFEIC ACID, reference compound] | 
65.2 |  |  |  | O=c1cc(-c2ccccc2)oc2cc(O)c(O)c(O)c12 [YU155285, BAICALEIN, reference compound] | Validation result of HTS active: effect of the compound in the JARID1B AlphaScreen demethylase assay (JARID1B; [3]): 0.59; Artifact signal: effect of the compound when it is incubated with bio-H3K4me2 peptide [1, 4]: 1.01
40.7 |  |  |  | CN(C)CCCn1cc(C2=C(c3c[nH]c4ccccc34)C(=O)NC2=O)c2ccccc21 [YU154851, GF 109203X, reference compound] | Validation result of HTS active: effect of the compound in the JARID1B AlphaScreen demethylase assay (JARID1B; [3]): 5.76; Artifact signal: effect of the compound when it is incubated with bio-H3K4me2 peptide [1, 4]: 5.46
63.9 | 8.44% | 51.44 | 59.88% | O=C(O)c1cc(O)c(O)c(O)c1 [YU155562, GALLIC ACID, reference compound] | 
37 |  |  |  | CCCc1ccc(OC(=O)c2cc3ccccc3oc2=O)cc1 [YU151027] | Validation result of HTS active: effect of the compound in the JARID1B AlphaScreen demethylase assay (JARID1B; [3]): 2.93; Artifact signal: effect of the compound when it is incubated with bio-H3K4me2 peptide [1, 4]: −4.49
43.4 |  |  |  | CCC(=O)Nc1ccc(N(C)CCCc2c(C)nn(C)c2C)c(C(=O)O)c1 [YU208228] | Validation result of HTS active: effect of the compound in the JARID1B AlphaScreen demethylase assay (JARID1B; [3]): 24.80; Artifact signal: effect of the compound when it is incubated with bio-H3K4me2 peptide [1, 4]: 20.21
42.1 | 0.57% | 32.23 | 32.80% | Cc1cc(N)c2ccccc2[n+]1CCCCCCCCCC[n+]1c(C)cc(N)c2ccccc21 [YU034372, DEQUALINIUM CHLORIDE, reference compound] | 
66 | 6.96% | 57.78 | 64.74% | Oc1cc(O)c2c(c1)O[C@H](c1ccc(O)c(O)c1)[C@H](O)C2 [YU155618, EPICATECHIN, reference compound] | 
30.4 | 2.98% | 35.74 | 38.72% | C=CCn1c(-c2cccc(OC)c2OC)n[nH]c1=S [YU148159] | 
35 | 1.65% | 14.61 | 16.26% | O=C(Cn1c(=O)oc2ccccc21)Nc1cccc([N+](=O)[O-])c1 [YU151591] | 
 | 85.87% | 8.72 | 94.59% | O=C(O[C@@H]1Cc2c(O)cc(O)cc2O[C@@H]1c1ccc(O)c(O)c1)c1cc(O)c(O)c(O)c1 [YU153085, EPICATECHIN MONOGALLATE, reference compound] | 

Continued, compound first:

Compound | inhibition at 20 µM (JARID1B; [2]) [%] | Artifact Signal (percent) [1] | Assay − Artifact Signal (percent) (JARID1B) [%] | Assay Signal (percent) (JARID1B; validation of HTS actives) | further results
O=C(Nc1ccc(N2Cc3ccccc3OC(c3ccccc3)C2)c(C(=O)O)c1)c1ccccc1F (centres unmarked) [YU208213] |  |  |  |  | Validation result of HTS active: effect of the compound in the JARID1B AlphaScreen demethylase assay (JARID1B; [3]): 37.72; Artifact signal: effect of the compound when it is incubated with bio-H3K4me2 peptide [1, 4]: 32.32
Oc1c(C(Nc2ccc(Cl)cc2)c2cccnc2)ccc2cccnc12 (centres unmarked) [YU172165] | 42.3 | 28.76% | 14.24 | 43.01% | 
CALCEIN [YU034124, reference compound] |  | −3.21% | 36.96 | 33.76% | Inhibitory effect (percent) (JARID1B; [2]): 60.48%
C=CCOc1c(Cl)cc(C=C[N+](=O)[O-])cc1OCC (single isomer, unassigned) [YU148636] | 34.7 | −0.47% | 11.11 | 10.64% | 
O=C(O[C@@H]1Cc2c(O)cc(O)cc2O[C@@H]1c1cc(O)c(O)c(O)c1-c1c([C@H]2Oc3cc(O)cc(O)c3C[C@H]2OC(=O)c2cc(O)c(O)c(O)c2)cc(O)c(O)c1O)c1cc(O)c(O)c(O)c1 (stereo in doubt) [YU155084, 2,2-BISEPIGALLO- CATECHIN DIGALLATE, reference compound] | 102 |  |  |  | Validation result of HTS active: effect of the compound in the JARID1B AlphaScreen demethylase assay (JARID1B; [3]): 98.89; Artifact signal: effect of the compound when it is incubated with bio-H3K4me2 peptide [1, 4]: 91.60
[O-][n+]1ccccc1[S-].[O-][n+]1ccccc1[S-].[Zn+2] [YU033800, PYRITHIONE ZINC, reference compound] |  |  |  |  | Inhibitory effect (percent) (JARID1B): 99.02%; Validation effect minus artifact signal (JARID1B): 1.60; Validation result of HTS active: effect of the compound in the JARID1B AlphaScreen demethylase assay (JARID1B): −18.35; Artifact signal: effect of the compound when it is incubated with bio-H3K4me2 peptide [1]: −19.95
COC(=O)c1cccc(OCC(O)Cn2ccnc2)c1 (centres unmarked) [YU148087] | 51.4 | 7.00% | 8.48 | 15.48% | 
CCOc1cccc(CNc2ccc(N3CCCC3)cc2)c1 [YU149839] | 47.5 | 18.44% | 13.21 | 31.65% | 
Cc1ccc(CNn2cnnc2S)cc1 [YU145266] | 45.7 | 1.04% | 44.07 | 45.11% | 
Cn1cnnc1SCC(=O)c1ccc(C(C)(C)C)cc1 [YU149180] | 32 | −2.49% | 52.70 | 50.21% | 
NC(CO)C(=O)NNCc1ccc(O)c(O)c1O (centres unmarked) [YU033702, BENSERAZIDE HYDROCHLORIDE, reference compound] | 70.6 | 21.46% | 52.50 | 73.96% | 
N#CC(=Cc1ccc(-c2ccccc2)o1)C(N)=S [YU146534] | 32.8 | 4.53% | 10.89 | 15.42% | 
COc1cccc2c1C(=O)c1c(O)c3c(c(O)c1C2=O)C[C@@](O)(C(C)=O)C[C@@H]3O[C@H]1C[C@H](N)[C@H](O)[C@H](C)O1 [YU155488, DAUNORUBICIN, reference compound] |  | 3.31% | 45.32 | 48.63% | 
Cn1c(=O)n(C)c2cc(S(=O)(=O)NNc3ccccc3)ccc21 [YU153899] |  |  |  |  | Validation result of HTS active: effect of the compound in the JARID1B AlphaScreen demethylase assay (JARID1B; [3]): 8.44; Artifact signal: effect of the compound when it is incubated with bio-H3K4me2 peptide [1, 4]: 0.54
O=C(Nc1ccc(N2CCC(c3ccccc3)C2)c(C(=O)O)c1)c1cccc(Cl)c1 (centres unmarked) [YU208239] | 50.2 | 26.96% | 9.53 | 36.49% | 
CN(C)c1cccc2c(C=O)ccc(N(C)C)c12 [YU145980] | 32.3 | 7.56% | 28.03 | 35.60% | 
O=c1c(O)c(-c2ccc(O)c(O)c2)oc2cc(O)cc(O)c12 [YU154882, QUERCETIN, reference compound] | 86 | 78.83% and 68.48% |  | 100.88% and 78.65% | Inhibitory effect (percent) (JARID1B; [2]): 93.51%
c1ccc(-c2nc3ccccn3c2Nc2ccc3c(c2)OCCO3)nc1 [YU172999] | 96.7 | 10.03% | 88.40 | 98.42% | 
COC(=O)c1cc(Br)c(OCc2ccccc2)c(CO[Si](C(C)(C)C)(C(C)(C)C)C(C)(C)C)c1OCc1ccccc1 [YU221143] | 40.9 | −3.99% | 26.59 | 22.60% | 
